The supplement of paper PMC11061612

Key:
Assay in all cases: Bliss excess, mean over the matrix (fraction); higher = more synergy
42-MG-BA (Glioblastoma) = system: 42-MG-BA (Glioblastoma)
In short: (§1)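 Cell lines in DMEM/F12 or RPMI with 10% FBS were plated in 1536-well plates, held 24 hours at 37°C, 5% CO2, then given two-drug dose matrices for 72 hours (DMSO typically 0.2%). Viability was read by CellTiter-Glo 2.0 luminescence and scaled as inhibition from 0 (vehicle wells) to 1 (blank wells). Combination Emax is the second-highest inhibition in the matrix; Bliss excess is observed combination effect minus expected EA + EB − EA·EB, EA and EB being single-agent effects.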

[1] = system: B-CPAP (Thyroid Gland Carcinoma)
In short: as §1

[2] = system: DoTc2-4510 (Cervical Carcinoma)
In short: as §1

[3] = system: EC-GI-10 (Esophageal Squamous Cell Carcinoma)
In short: as §1

ES4 (Ewing's Sarcoma) = system: ES4 (Ewing's Sarcoma)
In short: as §1

[4] = system: HO-1-N-1 (Oral Cavity Carcinoma)
In short: as §1

KELLY (Neuroblastoma) = system: KELLY (Neuroblastoma)
In short: as §1

[5] = system: KURAMOCHI (Ovarian Carcinoma)
In short: as §1

[6] = system: KYSE-520 (Esophageal Squamous Cell Carcinoma)
In short: as §1

[7] = system: LS-180 (Colorectal Carcinoma)
In short: as §1

[8] = system: MDA-MB-361 (Breast Carcinoma)
In short: as §1

[9] = system: MFE-296 (Endometrial Carcinoma)
In short: as §1

NB10 (Neuroblastoma) = system: NB10 (Neuroblastoma)
In short: as §1

[10] = system: NCI-H82 (Small Cell Lung Carcinoma)
In short: as §1

NOS-1 (Osteosarcoma) = system: NOS-1 (Osteosarcoma)
In short: as §1

[11] = system: OVCA420 (Ovarian Carcinoma)
In short: as §1

[12] = system: RC-K8 (B-Cell Non-Hodgkin's Lymphoma)
In short: as §1

[13] = system: SK-ES-1 (Ewing's Sarcoma)
In short: as §1

[14] = system: TE-15 (Esophageal Squamous Cell Carcinoma)
In short: as §1

[15] = system: TE-9 (Esophageal Squamous Cell Carcinoma)
In short: as §1

Compound	Bliss excess (42-MG-BA (Glioblastoma))	Bliss excess [1]	Bliss excess [2]	Bliss excess [3]	Bliss excess (ES4 (Ewing's Sarcoma))	Bliss excess [4]	Bliss excess (KELLY (Neuroblastoma))	Bliss excess [5]	Bliss excess [6]	Bliss excess [7]	Bliss excess [8]	Bliss excess [9]	Bliss excess (NB10 (Neuroblastoma))	Bliss excess [10]	Bliss excess (NOS-1 (Osteosarcoma))	Bliss excess [11]	Bliss excess [12]	Bliss excess [13]	Bliss excess [14]	Bliss excess [15]
Cc1c2c(nn1C)CSCc1cc(n(C)n1)CSc1cc(c3ccccc3c1)OCCCc1c(C(=O)O)n(C)c3c-2c(Cl)ccc13 [AZD5991] + C1CN(CCC1(C(=O)N[C@@H](CCO)C2=CC=C(C=C2)Cl)N)C3=NC=NC4=C3C=CN4 [Capivasertib] (first compound max 1 µM, 7x7, partner max 3 µM)	-0.0442	-0.0249	0.0544	0.0589	0.0162	0.0001	0.0246	0.0205	-0.0068	0.0195	0.0211	0.094	-0.0316	-0.008	0.0511	0.0186	-0.03	0.0217	-0.0196	0.0095
NC1(C(=O)N[C@@H](CCO)c2ccc(Cl)cc2)CCN(c2ncnc3[nH]ccc23)CC1 [Capivasertib] + CC(=O)c1c(C)c2cnc(Nc3ccc(N4CCNCC4)cn3)nc2n(C2CCCC2)c1=O [Palbociclib] (first compound max 10 µM, 7x7, partner max 10 µM)	-0.0633	-0.046	-0.0983	-0.0056	0.074	0.026	0.151	-0.0124	-0.0342	0.0189	-0.0161	-0.0349	0.0232	-0.0229	-0.0389	0.0261	-0.0014	0.0865	0.0281	-0.0271
CN(CCO)CC[C@H](CSc1ccccc1)Nc1ccc(S(=O)(=O)NC(=O)c2ccc(N3CCC([C@@H](O)c4ccccc4-c4ccc(Cl)cc4)CC3)cc2)cc1S(=O)(=O)C(F)(F)F [AZD4320] + CN(C)CCCOc1ccc(-c2ccc3ncc4c(c3c2)n(C2CCOCC2)c(=O)n4C)cn1 [AZD0156] (first compound max 1 µM, 7x7, partner max 1 µM)	-0.0225	-0.0065	-0.12	-0.0333	0.0223	-0.0011	0.077	-0.0367	-0.051	-0.0209	-0.0589	-0.0346	-0.0056	0.012	0.0203	-0.0206	0.0161	0.047	-0.0455	-0.0101
NC1(C(=O)N[C@@H](CCO)c2ccc(Cl)cc2)CCN(c2ncnc3[nH]ccc23)CC1 [Capivasertib] + CC(C)n1c(=O)n(C)c2cnc3cc(F)c(-c4ccc(OCCCN5CCCCC5)nc4)cc3c21 [AZD1390] (first compound max 10 µM, 7x7, partner max 0.3 µM)	-0.0608	-0.0897	-0.0976	-0.0418	-0.0585	0.0055	-0.0322	-0.0085	-0.0364	-0.0332	-0.0555	-0.0695	-0.0544	0.0005	-0.0117	-0.0406	-0.0149	0.0079	-0.0774	-0.0431
CN(CCO)CC[C@H](CSc1ccccc1)Nc1ccc(S(=O)(=O)NC(=O)c2ccc(N3CCC([C@@H](O)c4ccccc4-c4ccc(Cl)cc4)CC3)cc2)cc1S(=O)(=O)C(F)(F)F [AZD4320] + Cn1cnc2c(F)c(Nc3ccc(Br)cc3Cl)c(C(=O)NOCCO)cc21 [Selumetinib] (first compound max 1 µM, 7x7, partner max 3 µM)	0.0167	0.0228	-0.021	0.0802	0.0074	-0.0533	0.0525	0.0636	0.0306	0.0159	0.0835	-0.0178	0	-0.0009	0.0796	0.0225	0.0467	-0.0095	-0.0391	0.0456
COc1cccc(OCCCN)c1-c1cc(Nc2cnc(C#N)cn2)n[nH]1 [Prexasertib] + CCc1c2c(nc3ccc(O)cc13)-c1cc3c(c(=O)n1C2)COC(=O)[C@]3(O)CC [SN-38] (first compound max 1 µM, 7x7, partner max 0.3 µM)	0.0122	0.0695	0.0167	0.0252	-0.0923	-0.0054	-0.0098	0.0311	0.048	-0.0629	-0.0298	0.0106	-0.0986	0.0347	0.0864	0.0326	-0.0506	-0.0081	-0.0275	0.0438
CC1(C)CCC(CN2CCN(c3ccc(C(=O)NS(=O)(=O)c4ccc(NCC5CCOCC5)c([N+](=O)[O-])c4)c(Oc4cnc5[nH]ccc5c4)c3)CC2)=C(c2ccc(Cl)cc2)C1 [Venetoclax] + CN(C)CCCOc1ccc(-c2ccc3ncc4c(c3c2)n(C2CCOCC2)c(=O)n4C)cn1 [AZD0156] (first compound max 1 µM, 7x7, partner max 1 µM)	0.0057	0.0113	-0.0148	0.0119	-0.0226	0.0445	0.0158	-0.0039	-0.0218	-0.0099	0.0156	0.0003	0.0418	0.0295	-0.0358	-0.02	0.0282	0.0502	-0.0298	-0.0213
COc1nnc2ccc(N3CCC(c4ccc(OCCN5CCN(C)C(=O)[C@H]5C)cc4)CC3)nn12 [AZD5153] + C=CCn1c(=O)c2cnc(Nc3ccc(N4CCN(C)CC4)cc3)nc2n1-c1cccc(C(C)(C)O)n1 [AZD1775] (first compound max 1 µM, partner max 1 µM)	-0.0577	-0.0803	-0.018	-0.0813	-0.0223	-0.0551	-0.0581	-0.0373	-0.0399	-0.049	-0.136	-0.0541	-0.0727	-0.0656	-0.0371	-0.0589	-0.101	-0.0279	-0.001	-0.0028
CC1(C)CCC(CN2CCN(c3ccc(C(=O)NS(=O)(=O)c4ccc(NCC5CCOCC5)c([N+](=O)[O-])c4)c(Oc4cnc5[nH]ccc5c4)c3)CC2)=C(c2ccc(Cl)cc2)C1 [Venetoclax] + COc1cc(Nc2ncc3c(n2)-c2ccc(Cl)cc2C(c2c(F)cccc2OC)=NC3)ccc1C(=O)O [Alisertib] (first compound max 1 µM, 7x7, partner max 10 µM)	0.0468	-0.0128	-0.0367	0.0164	-0.0349	-0.0846	0.0343	-0.0992	-0.0489	-0.008	0.147	-0.0285	-0.0052	0.0328	-0.0231	-0.025	0.024	0.097	0.0102	0.0148
CC1(C)CCC(CN2CCN(c3ccc(C(=O)NS(=O)(=O)c4ccc(NCC5CCOCC5)c([N+](=O)[O-])c4)c(Oc4cnc5[nH]ccc5c4)c3)CC2)=C(c2ccc(Cl)cc2)C1 [Venetoclax] + CCN(CCO)CCCOc1ccc2c(Nc3cc(CC(=O)Nc4cccc(F)c4)[nH]n3)ncnc2c1 [AZD2811] (first compound max 1 µM, 7x7, partner max 1 µM)	0.0019	0.0031	-0.0189	-0.0058	-0.029	-0.032	0.0038	-0.0237	-0.0294	-0.0106	0.0884	-0.013	-0.0539	0.0452	-0.0156	-0.0114	0.0214	0.0156	-0.0386	-0.0184
C[C@@H](c1ccc2nccn2c1)n1nnc2ncc(-c3cnn(C)c3)nc21 [Savolitinib] + Cc1c2c(nn1C)CSCc1cc(n(C)n1)CSc1cc(c3ccccc3c1)OCCCc1c(C(=O)O)n(C)c3c-2c(Cl)ccc13 [AZD5991] (first compound max 1 µM, 7x7, partner max 1 µM)	-0.0633	-0.0221	-0.0204	-0.07	-0.0724	-0.0373	-0.0138	-0.0332	-0.0615	-0.015	-0.0841	-0.0228	-0.0278	-0.0763	-0.059	-0.0134	-0.0257	-0.0326	-0.0511	-0.0683
